The values that follow come from ChEMBL document CHEMBL1201862, “PubChem BioAssay data set” (2004).

Test systems include T47D; OVCAR-8; BT-549; Malme-3M; HT-29; SK-MEL-28; SF-268; SNB-75; NCI/ADR-RES; UACC-62; MDA-MB-231; MOLT-4; SW-620; OVCAR-4; SK-OV-3; EKVX; NCI-H226; HCT-116; SF-295; DU-145.
What all share (experiment): NCI anticancer screen, dose series, 48 h

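Values below derive from 48-hour exposures of cells grown in 96-well plates, with endpoints linearly interpolated between the two concentrations bracketing the appropriate inhibition level. GI50: concentration for 50% inhibition of growth.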 Activity calls are given as the source filed them. Rule as the data show it: active = GI50 up to about 1.1 µM and inactive = higher.

In the case of `OCCCCCNc1cc(O)nc(O)n1`, the GI50 in the experiment on T47D, in the experiment with OVCAR-8, with BT-549, with Malme-3M, in the experiment on HT-29 and in the experiment with SK-MEL-28 was > 100 µM (inactive) in each case. For the same compound, the GI50 in the experiment with SF-268, with SNB-75, with NCI/ADR-RES, in the experiment with UACC-62, with MDA-MB-231 and in the experiment with MOLT-4 was > 100 µM (inactive) throughout. Further, the GI50 with SW-620, with OVCAR-4, with SK-OV-3, with EKVX, with NCI-H226 and in the experiment with HCT-116 was > 100 µM (inactive) each time. Also, the GI50 in the experiment on SF-295 was > 100 µM (inactive).
On to `O=C1NC2ON=C(c3ccccc3)C2C2ON=C(c3ccccc3)N12` (centres undefined), for which the GI50 is 64.6 µM (inactive) in the experiment on OVCAR-8; > 100 µM (inactive) in the experiment on DU-145; > 100 µM (inactive) in the experiment with BT-549; > 100 µM (inactive) in the experiment on Malme-3M; 41.2 µM (inactive) with HT-29; > 100 µM (inactive) in the experiment with SF-268. In addition, the GI50 was > 100 µM (inactive) in the experiment with SNB-75; 45.9 µM (inactive) in the experiment on NCI/ADR-RES; > 100 µM (inactive) in the experiment on UACC-62; > 100 µM (inactive) in the experiment with MDA-MB-231; > 100 µM (inactive) in the experiment with SK-OV-3; > 100 µM (inactive) in the experiment with EKVX. The GI50 with NCI-H226 and in the experiment on SF-295 was > 100 µM (inactive) throughout.
Consider `O=C(c1cccc(C(=O)c2ccc3c4c(cccc24)C(=O)N(c2ccccc2)C3=O)c1)c1ccc2c3c(cccc13)C(=O)N(c1ccccc1)C2=O`, for which the GI50 in the experiment on OVCAR-8, in the experiment on DU-145, with BT-549, in the experiment on Malme-3M, in the experiment with HT-29 and with SK-MEL-28 was > 100 µM (inactive) throughout. Further, the GI50 with SF-268 is > 100 µM (inactive); in the experiment on SNB-75, > 100 µM (inactive); in the experiment on NCI/ADR-RES it was > 100 µM (inactive); in the experiment with UACC-62, 40 µM (inactive); with MDA-MB-231 it was 67.1 µM (inactive); in the experiment on MOLT-4, > 100 µM (inactive). For the same compound, the GI50 is > 100 µM (inactive) in the experiment on SW-620; > 100 µM (inactive) with OVCAR-4; > 100 µM (inactive) in the experiment on SK-OV-3; 38 µM (inactive) with EKVX; > 100 µM (inactive) with NCI-H226; > 100 µM (inactive) in the experiment on HCT-116. Further, the GI50 with SF-295 is 71.9 µM (inactive).
In the case of `Cc1ccc2nc(Cl)c(/C=N/N3C(=O)/C(=C/c4ccccc4S)N=C3c3ccccc3)cc2c1`, the GI50 in the experiment with T47D was 48.5 µM (inactive); with OVCAR-8 it was 47.8 µM (inactive); in the experiment with DU-145, 53.3 µM (inactive); with BT-549 it was 49.5 µM (inactive); in the experiment with HT-29, 42.8 µM (inactive); in the experiment with SK-MEL-28, > 100 µM (inactive). In addition, the GI50 with SF-268 is 36.6 µM (inactive); in the experiment with SNB-75 it was 22.1 µM (inactive); in the experiment with NCI/ADR-RES, 22.9 µM (inactive); in the experiment with UACC-62, 38.7 µM (inactive); in the experiment on MDA-MB-231, > 100 µM (inactive); in the experiment with MOLT-4, 1.85 µM (inactive). Further, the GI50 was 39.2 µM (inactive) in the experiment on SW-620; 29.6 µM (inactive) with OVCAR-4; 22.2 µM (inactive) in the experiment on SK-OV-3; 59.7 µM (inactive) in the experiment on EKVX; 30.1 µM (inactive) in the experiment with HCT-116; 25.3 µM (inactive) in the experiment with SF-295.
Take `Nc1cc2ncnc(Nc3cccc(Br)c3)c2cn1`: the GI50 with T47D is 23.9 µM (inactive); with OVCAR-8, 36.1 µM (inactive); in the experiment on BT-549 it was > 100 µM (inactive); with Malme-3M it was > 100 µM (inactive); with HT-29, 31.4 µM (inactive); with SK-MEL-28, 71.9 µM (inactive). The GI50 in the experiment with SF-268 is 58.2 µM (inactive); in the experiment with SNB-75 it was 33.7 µM (inactive); in the experiment on NCI/ADR-RES, 45.6 µM (inactive); in the experiment on UACC-62 it was 38.5 µM (inactive); in the experiment with MDA-MB-231 it was 45.2 µM (inactive); in the experiment with MOLT-4 it was > 100 µM (inactive). The GI50 is > 100 µM (inactive) with SW-620; 39.9 µM (inactive) in the experiment on OVCAR-4; 8.18 µM (inactive) in the experiment with SK-OV-3; 23.8 µM (inactive) with NCI-H226; 49.5 µM (inactive) with HCT-116; 26.9 µM (inactive) with SF-295.
For the compound `CCOC(=O)c1c(NC(=O)c2ccc(OC)cc2)sc2c1CCCC2`, the GI50 in the experiment with T47D, with OVCAR-8, in the experiment with DU-145, with BT-549, with HT-29 and in the experiment on SK-MEL-28 was > 100 µM (inactive) each time. Moreover, the GI50 in the experiment with SF-268, in the experiment with NCI/ADR-RES, in the experiment with UACC-62, with MDA-MB-231, in the experiment with MOLT-4 and with SW-620 was > 100 µM (inactive) each time. Moreover, the GI50 with EKVX, in the experiment with NCI-H226, in the experiment on HCT-116 and with SF-295 was > 100 µM (inactive) throughout.
With `CN(C)c1ccc(/C=C2\N=C(c3ccc([N+](=O)[O-])cc3)OC2=O)cc1`, the GI50 with T47D is 48.4 µM (inactive); in the experiment with OVCAR-8 it was 74.8 µM (inactive); in the experiment on DU-145, > 100 µM (inactive); in the experiment with BT-549, 71.6 µM (inactive); with Malme-3M, 49.2 µM (inactive); with HT-29, 72.6 µM (inactive). Besides, the GI50 in the experiment on SK-MEL-28 was > 100 µM (inactive); in the experiment on SF-268 it was 71.6 µM (inactive); with SNB-75 it was > 100 µM (inactive); in the experiment on UACC-62, 65.9 µM (inactive); in the experiment with MDA-MB-231, 64.6 µM (inactive); in the experiment with MOLT-4 it was > 100 µM (inactive). For the same compound, the GI50 in the experiment on SW-620 was 67.6 µM (inactive); in the experiment with OVCAR-4, > 100 µM (inactive); with SK-OV-3, > 100 µM (inactive); with EKVX, > 100 µM (inactive); in the experiment with NCI-H226 it was > 100 µM (inactive); with HCT-116, 34.8 µM (inactive). The GI50 in the experiment with SF-295 is > 100 µM (inactive).
Take `COc1ccc(CNc2cc(=O)n(C)c(=O)[nH]2)cc1`: the GI50 with T47D, in the experiment on OVCAR-8, with BT-549, in the experiment on Malme-3M, with HT-29 and in the experiment with SK-MEL-28 was > 100 µM (inactive) in each case. Also, the GI50 is > 100 µM (inactive) with SF-268; 33.3 µM (inactive) in the experiment on SNB-75; > 100 µM (inactive) in the experiment with NCI/ADR-RES; > 100 µM (inactive) in the experiment on UACC-62; > 100 µM (inactive) in the experiment with MDA-MB-231; > 100 µM (inactive) in the experiment with MOLT-4. The GI50 with SW-620, in the experiment with OVCAR-4, in the experiment on SK-OV-3, with EKVX, in the experiment on NCI-H226 and with HCT-116 was > 100 µM (inactive) throughout. Further, the GI50 in the experiment with SF-295 was > 100 µM (inactive).
In the case of `COc1ccc(-n2c(=O)n(C)c(=O)n2-c2ccc(OC)cc2)cc1`, the GI50 with T47D, in the experiment on OVCAR-8, in the experiment on DU-145, with BT-549, in the experiment on HT-29 and in the experiment with SK-MEL-28 was > 100 µM (inactive) in each case. The GI50 with SF-268 is > 100 µM (inactive); in the experiment with SNB-75 it was 56.6 µM (inactive); in the experiment on NCI/ADR-RES it was > 100 µM (inactive); in the experiment with UACC-62 it was > 100 µM (inactive); in the experiment with MDA-MB-231, > 100 µM (inactive); in the experiment with MOLT-4, > 100 µM (inactive). Also, the GI50 is > 100 µM (inactive) with SW-620; > 100 µM (inactive) in the experiment on SK-OV-3; > 100 µM (inactive) with EKVX; > 100 µM (inactive) with NCI-H226; 98.6 µM (inactive) with HCT-116; > 100 µM (inactive) in the experiment with SF-295.
On to `COc1ccc([C@H](NC(=O)c2ccccc2)[C@@H](O)C(=O)O[C@H]2C[C@@]3(O)C(OC(=O)c4ccccc4)C4[C@](C)(C(=O)[C@H](OC(C)=O)C(=C2C)C3(C)C)[C@@H](O)C[C@H]2OC[C@@]42OC(C)=O)cc1` (some centres undefined), for which the GI50 is 0.00434 µM (active) in the experiment with OVCAR-8; 0.00248 µM (active) with DU-145; 0.0299 µM (active) with BT-549; 0.0028 µM (active) in the experiment on Malme-3M; < 0.001 µM (active) with HT-29; 0.00593 µM (active) in the experiment on SK-MEL-28. For the same compound, the GI50 is 0.00415 µM (active) with SF-268; < 0.001 µM (active) in the experiment on SNB-75; > 6.43 µM (inactive) in the experiment on NCI/ADR-RES; 0.00136 µM (active) in the experiment with UACC-62; > 10 µM (inactive) with MDA-MB-231; 0.00286 µM (active) in the experiment with MOLT-4. Moreover, the GI50 was 0.00508 µM (active) in the experiment with SW-620; 3.11 µM (inactive) in the experiment with OVCAR-4; 0.00117 µM (active) in the experiment on SK-OV-3; 0.22 µM (active) in the experiment on EKVX; 0.00673 µM (active) with NCI-H226; < 0.001 µM (active) in the experiment on HCT-116. For the same compound, the GI50 in the experiment on SF-295 is 0.0783 µM (active).
Consider `C=CCC1(C#N)C(=S)NC2=C(C(=O)CC(C)(C)C2)C1c1ccccc1` (centres undefined), for which the GI50 in the experiment on T47D is 27.3 µM (inactive); in the experiment on OVCAR-8, 24 µM (inactive); in the experiment on DU-145, 19.2 µM (inactive); in the experiment on BT-549, 66.7 µM (inactive); with HT-29, 34.6 µM (inactive); in the experiment on SK-MEL-28 it was 61.8 µM (inactive). The GI50 in the experiment with SNB-75 is 27 µM (inactive); in the experiment on NCI/ADR-RES, 56.9 µM (inactive); in the experiment on MDA-MB-231 it was 36.7 µM (inactive); in the experiment on MOLT-4, 74.1 µM (inactive); with SW-620, > 100 µM (inactive); in the experiment on OVCAR-4 it was 31 µM (inactive). For the same compound, the GI50 in the experiment with EKVX is 19.2 µM (inactive); in the experiment with NCI-H226 it was 71.4 µM (inactive); in the experiment with HCT-116 it was 59.4 µM (inactive).
